# According to ChEMBL document CHEMBL2311281, “Novel berberine triazoles: synthesis, antimicrobial evaluation and competitive interactions with metal ions to human serum albumin” (Bioorg Med Chem Lett, 2013):
# How the values were obtained:
# Proteus vulgaris = assay: Antibacterial activity against Proteus vulgaris by two fold serial dilution method; format: functional
# Pseudomonas aeruginosa = assay: Antibacterial activity against Pseudomonas aeruginosa by two fold serial dilution method; format: functional
# Shigella dysenteriae = assay: Antibacterial activity against Shigella dysenteriae by two fold serial dilution method; format: functional
# Escherichia coli = assay: Antibacterial activity against Escherichia coli DH52 by two fold serial dilution method; format: functional
# Bacillus subtilis = assay: Antibacterial activity against Bacillus subtilis by two fold serial dilution method; format: functional
# Micrococcus luteus = assay: Antibacterial activity against Micrococcus luteus ATCC 4698 by two fold serial dilution method; format: functional
# Staphylococcus aureus [1] = assay: Antibacterial activity against Staphylococcus aureus ATCC 25923 by two fold serial dilution method; format: functional
# Staphylococcus aureus [2] = assay: Antibacterial activity against methicillin-resistant Staphylococcus aureus N315 by two fold serial dilution method; format: functional
# Staphylococcus aureus [3] = assay: Potency index, ratio of MIC for berberine to MIC compound against methicillin-resistant Staphylococcus aureus N315 by two fold serial dilution method; format: functional
# Staphylococcus aureus [4] = assay: Potency index, ratio of MIC for chloromycin to MIC compound against methicillin-resistant Staphylococcus aureus N315 by two fold serial dilution method; format: functional
# Albumin [5] = target: T1, Albumin (Homo sapiens, UniProt P02768); assay: Ratio of binding affinity to HSA in presence of Fe3+ ions to binding affinity to HSA in absence of metal ions; format: ADME; conditions: isolated protein
# Albumin [6] = target: T1, Albumin; assay: Ratio of binding affinity to HSA in presence of Mg2+ ions to binding affinity to HSA in absence of metal ions; format: ADME; conditions: isolated protein
# Albumin [7] = target: T1, Albumin; assay: Ratio of binding affinity to HSA in presence of Zn2+ ions to binding affinity to HSA in absence of metal ions; format: ADME; conditions: isolated protein
# Albumin [8] = target: T1, Albumin; assay: Ratio of binding affinity to HSA in presence of Pb2+ ions to binding affinity to HSA in absence of metal ions; format: ADME; conditions: isolated protein
# Albumin [9] = target: T1, Albumin; assay: Ratio of binding affinity to HSA in presence of Ni2+ ions to binding affinity to HSA in absence of metal ions; format: ADME; conditions: isolated protein
# Albumin [10] = target: T1, Albumin; assay: Ratio of binding affinity to HSA in presence of K+ ions to binding affinity to HSA in absence of metal ions; format: ADME; conditions: isolated protein
# Albumin [11] = target: T1, Albumin; assay: Ratio of binding affinity to HSA in presence of La3+ ions to binding affinity to HSA in absence of metal ions; format: ADME; conditions: isolated protein
# Albumin [12] = target: T1, Albumin; assay: Ratio of binding affinity to HSA in presence of Cu2+ ions to binding affinity to HSA in absence of metal ions; format: ADME; conditions: isolated protein
# Albumin [13] = target: T1, Albumin; assay: Ratio of binding affinity to HSA in presence of Ce3+ ions to binding affinity to HSA in absence of metal ions; format: ADME; conditions: isolated protein
# Albumin [14] = target: T1, Albumin; assay: Ratio of binding affinity to HSA in presence of Ca2+ ions to binding affinity to HSA in absence of metal ions; format: ADME; conditions: isolated protein
# T1 sequence (P02768 whole entry): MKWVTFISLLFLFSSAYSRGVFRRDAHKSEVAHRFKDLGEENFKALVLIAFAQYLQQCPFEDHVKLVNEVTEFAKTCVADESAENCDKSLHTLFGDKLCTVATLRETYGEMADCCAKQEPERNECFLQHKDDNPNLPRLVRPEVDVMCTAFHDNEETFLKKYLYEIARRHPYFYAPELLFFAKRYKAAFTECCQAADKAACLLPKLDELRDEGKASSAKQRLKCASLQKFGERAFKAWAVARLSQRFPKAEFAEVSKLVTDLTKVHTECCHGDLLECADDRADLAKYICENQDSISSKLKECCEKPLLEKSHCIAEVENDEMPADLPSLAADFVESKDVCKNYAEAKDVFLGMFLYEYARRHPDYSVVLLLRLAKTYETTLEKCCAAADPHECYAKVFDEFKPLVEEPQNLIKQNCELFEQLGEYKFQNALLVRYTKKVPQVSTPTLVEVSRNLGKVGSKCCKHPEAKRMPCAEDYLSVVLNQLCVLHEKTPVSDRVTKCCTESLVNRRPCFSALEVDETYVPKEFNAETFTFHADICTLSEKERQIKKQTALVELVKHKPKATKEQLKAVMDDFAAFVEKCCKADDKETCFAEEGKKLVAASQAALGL
SMILES,MIC (Proteus vulgaris),MIC (Pseudomonas aeruginosa),MIC (Shigella dysenteriae),MIC (Escherichia coli),MIC (Bacillus subtilis),MIC (Micrococcus luteus),MIC (Staphylococcus aureus [1]),MIC (Staphylococcus aureus [2]),Ratio (Staphylococcus aureus [3]),Ratio (Staphylococcus aureus [4]),Ratio (Albumin [5]),Ratio (Albumin [6]),Ratio (Albumin [7]),Ratio (Albumin [8]),Ratio (Albumin [9]),Ratio (Albumin [10]),Ratio (Albumin [11]),Ratio (Albumin [12]),Ratio (Albumin [13]),Ratio (Albumin [14])
COc1ccc2cc3[n+](cc2c1OCCN(CCn1cncn1)Cc1ccc(Cl)cc1)CCc1cc2c(cc1-3)OCO2.[Cl-],32 mg/L,16 mg/L,8 mg/L,16 mg/L,8 mg/L,16 mg/L,16 mg/L,16 mg/L,–,–,–,–,–,–,–,–,–,–,–,–
COc1ccc2cc3[n+](cc2c1OCCN(CCn1cncn1)Cc1cccc(Cl)c1)CCc1cc2c(cc1-3)OCO2.[Cl-],32 mg/L,32 mg/L,32 mg/L,8 mg/L,16 mg/L,32 mg/L,8 mg/L,32 mg/L,–,–,–,–,–,–,–,–,–,–,–,–
COc1ccc2cc3[n+](cc2c1OCCN(CCn1cncn1)Cc1ccccc1Cl)CCc1cc2c(cc1-3)OCO2.[Cl-],16 mg/L,32 mg/L,32 mg/L,8 mg/L,8 mg/L,32 mg/L,8 mg/L,16 mg/L,–,–,–,–,–,–,–,–,–,–,–,–
COc1ccc2cc3[n+](cc2c1OCCN(CCn1cncn1)Cc1ccc(Cl)c(Cl)c1)CCc1cc2c(cc1-3)OCO2.[Cl-],8 mg/L,16 mg/L,16 mg/L,8 mg/L,8 mg/L,16 mg/L,8 mg/L,16 mg/L,–,–,–,–,–,–,–,–,–,–,–,–
COc1ccc2cc3[n+](cc2c1OCCN(CCn1cncn1)Cc1ccc(Cl)cc1Cl)CCc1cc2c(cc1-3)OCO2.[Cl-],8 mg/L,16 mg/L,8 mg/L,4 mg/L,8 mg/L,16 mg/L,8 mg/L,8 mg/L,16,2,–,–,–,–,–,–,–,–,–,–
COc1ccc2cc3[n+](cc2c1OCCN(CCn1cncn1)Cc1cccc(F)c1)CCc1cc2c(cc1-3)OCO2.[Cl-],4 mg/L,8 mg/L,4 mg/L,8 mg/L,8 mg/L,16 mg/L,8 mg/L,8 mg/L,16,2,–,–,–,–,–,–,–,–,–,–
COc1ccc2cc3[n+](cc2c1OCCN(CCn1cncn1)Cc1ccccc1F)CCc1cc2c(cc1-3)OCO2.[Cl-],4 mg/L,8 mg/L,4 mg/L,4 mg/L,8 mg/L,8 mg/L,4 mg/L,8 mg/L,16,2,–,–,–,–,–,–,–,–,–,–
Clc1ccc(CN(CCBr)CCn2cncn2)cc1,512 mg/L,256 mg/L,256 mg/L,128 mg/L,256 mg/L,512 mg/L,128 mg/L,256 mg/L,–,–,–,–,–,–,–,–,–,–,–,–
COc1ccc2cc3[n+](cc2c1OCCN(CCn1cncn1)Cc1ccc(F)cc1F)CCc1cc2c(cc1-3)OCO2.[Cl-],2 mg/L,8 mg/L,4 mg/L,4 mg/L,8 mg/L,8 mg/L,4 mg/L,8 mg/L,16,2,1.116,1.064,0.871,0.963,0.839,0.943,0.883,0.972,0.998,0.956
Clc1cccc(CN(CCBr)CCn2cncn2)c1,> 512 mg/L,256 mg/L,256 mg/L,128 mg/L,256 mg/L,64 mg/L,128 mg/L,256 mg/L,–,–,–,–,–,–,–,–,–,–,–,–
Clc1ccc(CN(CCBr)CCn2cncn2)c(Cl)c1,128 mg/L,128 mg/L,128 mg/L,32 mg/L,256 mg/L,32 mg/L,64 mg/L,256 mg/L,–,–,–,–,–,–,–,–,–,–,–,–
Clc1ccc(CN(CCBr)CCn2cncn2)cc1Cl,256 mg/L,128 mg/L,128 mg/L,32 mg/L,256 mg/L,32 mg/L,64 mg/L,256 mg/L,–,–,–,–,–,–,–,–,–,–,–,–
Clc1ccccc1CN(CCBr)CCn1cncn1,512 mg/L,128 mg/L,256 mg/L,64 mg/L,256 mg/L,64 mg/L,128 mg/L,256 mg/L,–,–,–,–,–,–,–,–,–,–,–,–
Fc1cccc(CN(CCBr)CCn2cncn2)c1,256 mg/L,128 mg/L,64 mg/L,64 mg/L,256 mg/L,64 mg/L,64 mg/L,128 mg/L,–,–,–,–,–,–,–,–,–,–,–,–
Fc1ccc(CN(CCBr)CCn2cncn2)c(F)c1,128 mg/L,128 mg/L,64 mg/L,32 mg/L,256 mg/L,32 mg/L,64 mg/L,128 mg/L,–,–,–,–,–,–,–,–,–,–,–,–
Fc1ccccc1CN(CCBr)CCn1cncn1,256 mg/L,128 mg/L,64 mg/L,32 mg/L,256 mg/L,64 mg/L,64 mg/L,128 mg/L,–,–,–,–,–,–,–,–,–,–,–,–
COc1ccc2cc3[n+](cc2c1OC)CCc1cc2c(cc1-3)OCO2 [BERBERINE],128 mg/L,256 mg/L,256 mg/L,> 512 mg/L,> 512 mg/L,> 512 mg/L,512 mg/L,128 mg/L,–,–,–,–,–,–,–,–,–,–,–,–
O=C(N[C@H](CO)[C@H](O)c1ccc([N+](=O)[O-])cc1)C(Cl)Cl [CHLORAMPHENICOL],32 mg/L,32 mg/L,32 mg/L,32 mg/L,32 mg/L,8 mg/L,16 mg/L,16 mg/L,–,–,–,–,–,–,–,–,–,–,–,–
CCn1cc(C(=O)O)c(=O)c2cc(F)c(N3CCNCC3)cc21 [NORFLOXACIN],8 mg/L,16 mg/L,4 mg/L,16 mg/L,1 mg/L,2 mg/L,0.5 mg/L,8 mg/L,–,–,–,–,–,–,–,–,–,–,–,–
